The results in this text go back to article PMC10787068, “Targeting the Mitochondrial Chaperone TRAP1 Alleviates Vascular Pathologies in Ischemic Retinopathy” (Advanced Science, 2023).

The subject of series [1] is HIF1α. In words: HIF1α degradation in MIO‐M1 cells under hypoxia (western blotting). The format is cell-based, human. Conditions: MIO‐M1 cells, 6 h under hypoxia. On the technique in general: In western blotting, separated proteins are transferred to a membrane and probed.
In series [2] the test system is calpain. Briefly: Calpain activity assay in MIO‐M1 cells. The format is cell-based, human. Conditions: 3 µM gamitrinib or 0.5 µM MitoQ, 6 h under hypoxia, fluorogenic calpain substrate, n = 4. The procedure: (§1) Figure 5 TRAP1 inhibition induces mPTP opening, mitochondrial calcium discharge, and calpain‐1 activation. A) Visualization of cytoplasmic calcium. Fluo‐4 AM‐labeled MIO‐M1 cells were incubated with the TRAP1 inhibitors gamitrinib and MitoQ^[ [32], [41] ^] for 6 h or thapsigargin for 30 min under hypoxia, and analyzed by confocal microscopy. Scale bars, 10 µm and 2 µm (inset). […] MIO‐M1 cells were treated with a TRAP1 inhibitor, 3 µM gamitrinib or 0.5 µM MitoQ, for 6 h under hypoxia (n = 4). Enzyme activity was measured using a fluorogenic calpain substrate as described in the Experimental Section. C) Restored HIF1α expression upon CypD inhibition. MIO‐M1 cells were incubated with control or CypD‐targeting siRNAs, treated with the TRAP1 inhibitor MitoQ for 6 h under hypoxia, harvested, and analyzed by western blotting. Black and red arrows indicate pro and autolyzed forms of calpain‐1, respectively. […] MIO‐M1 cells were incubated with TRAP1‐targeting siRNAs for 48 h, exposed to hypoxia for 6 h, harvested, and analyzed by qPCR (n = 4). […] Cells were then analyzed by flow cytometry to detect cytoplasmic calcium. […] MIO‐M1 cells were incubated with TRAP1 inhibitors, 3 µM gamitrinib, and 0.5 µM MitoQ, and a cell‐permeable calcium chelator, BAPTA (10 µM), for 6 h as indicated under hypoxia and analyzed by western blotting. […] Data information: Data are expressed as mean ± SEM. […]

Series [3] deals with MIO‐M1 cells. In words: Cytoplasmic calcium (Fluo‐4 AM) in MIO‐M1 cells. The conditions noted are these: Fluo‐4 AM‐labeled MIO‐M1 cells under hypoxia; MitoQ 6 h, thapsigargin 30 min. The format is cell-based, human. The procedure:
as §1

Series [4] has as its system mouse cornea. Briefly: Corneal toxicity after topical application (H&E staining). The format is in vivo. The conditions noted are these: 2 mM once daily for 6 days. As to the method: their cytotoxic activities were analyzed in four independent experiments by trypan blue staining. The calculated IC50 values are presented in the normal cell cytotoxicity column in Table 1. B) Topical toxicity of TRAP1 inhibitors. A 3D culture of human corneal epithelium (MCTT HCE) was incubated with 2 mM TRAP1 inhibitors and analyzed by H&E staining.
The culture thickness (n = 5) was measured and analyzed (Table S1). Scale bar, 25 μm. C) Corneal toxicity. After topical application of 2 mM MitoQ, SB-U014, or SB-U015 once daily for 6 days, the mouse cornea was harvested and analyzed by H&E staining. Treatment with […]
Supplementary Table 1. Percentage viability and thickness of the 3D culture of MCTT […]
Drug Percentage viability (%) Thickness (μm)
A 3D culture of human corneal epithelium (MCTT HCE) was incubated with 2 mM TRAP1 inhibitors, and the percentage viability was analyzed by the WST-1 assay (n = 4). Absorbance was measured with a microplate reader. Thickness was calculated from H&E staining images (n = 5) as in Figure S18B, Supporting information. Data Information: The data are […]

In series [5] the test system is 3D human corneal epithelial (HCE) model, MCTT HCE. Briefly: Eye irritation test with MCTT HCE (OECD test guideline 492). The format is cell-based. The conditions noted are these: 3D culture MCTT HCE, TRAP1 inhibitors at 2 mM, H&E staining images, n = 5, mean ± SEM. As to the method:
(§2) An eye irritation test was performed using a 3D human corneal epithelial (HCE) model, called MCTT HCE (KeraSkin; Biosolution, Seoul, Republic of Korea), for OECD test guideline 492, following the manufacturer's instructions. In brief, HCE tissues were incubated overnight in medium provided by the supplier. Thereafter, 2 mM MitoQ, SB‐U014, and SB‐U015 were applied to the upper epithelial surface of HCE tissues and incubated for 10 min. After removing the drugs by washing the tissues with PBS, the tissues were further incubated for 16 h, and then subjected to the WST‐1 assay for viability assessment and fixed in 4% PFA for histological analysis. […]
(§3) their cytotoxic activities were analyzed in four independent experiments by trypan blue staining. The calculated IC50 values are presented in the normal cell cytotoxicity column in Table 1. […] A 3D culture of human corneal epithelium (MCTT HCE) was incubated with 2 mM TRAP1 inhibitors and analyzed by H&E staining.
(§4) The culture thickness (n = 5) was measured and analyzed (Table S1). […] After topical application of 2 mM MitoQ, SB-U014, or SB-U015 once daily for 6 days, the mouse cornea was harvested and analyzed by H&E staining. […]
(§5) A 3D culture of human corneal epithelium (MCTT HCE) was incubated with 2 mM TRAP1 inhibitors, and the percentage viability was analyzed by the WST-1 assay (n = 4). Absorbance was measured with a microplate reader. […]

Experiment in series [6]: as above
The format is cell-based, human. Conditions: human; 3D culture MCTT HCE, TRAP1 inhibitors at 2 mM, WST-1 assay, n = 4, mean ± SEM; read-out: Percentage viability (%). As to the method: as §2, §3, §4, §5
For orientation: Tetrazolium dyes change colour on reduction, which living cells bring about.

A word on the IC50: it is the concentration needed to halve the response being measured. The low end stands for greater potency in that assay, the high end for weaker potency in that assay. By viability is commonly meant a read-out of living cells in per cent, often relative to untreated cells.

With `COC1=C(OC)C(=O)C(CCCCCCCCCC[P+](c2ccccc2)(c2ccccc2)c2ccccc2)=C(C)C1=O` [MitoQ, mitoquinone], the IC50 in series [1] (Homo sapiens, western blot band intensity, n = 4, mean ± SEM) stood at 0.077 ± 0.016 µM. In addition, the “potency in inducing the degradation of HIF1α relative to gamitrinib” value in series [1] is given as “more than 10 fold”. For the same molecule, in series [2], the calpain enzyme activity result is recorded as “Calpain activation”. Also, in series [3], the cytoplasmic calcium entry is recorded as “Modestly elevated”. Moreover, the “histologic abnormality of cornea after topical application” value in series [4] is “did not cause any noticeable abnormality”. Further, the “Thickness (μm)” value in series [5] is 53.43 ± 2.79 μm. Moreover, the viability at 10 min, 2 mM in series [6] was found to be 63.47 ± 0.23%.
